Test results published in patent US20240228543A1, “CYCLIC PEPTIDE INHIBITORS OF USP22” (THE JOHNS HOPKINS UNIVERSITY, priority 2021, published 2024).
Positions of bridges follow the written chain, without caps; N, C: chain ends. Non-standard residues stand in square brackets, D forms with d. Residues, ends and D or L forms follow the SMILES beside them.

How the values were obtained:
USP30 = biological target: T1, USP30 (Homo sapiens, UniProt Q70CQ3); assay: End-point Ub-AMC cleavage by off-target DUB USP30; type: biochemical; conditions: 1 μM hD1, 200 nM USP30, 1 μM Ub-AMC
T1 sequence (Q70CQ3 1-517): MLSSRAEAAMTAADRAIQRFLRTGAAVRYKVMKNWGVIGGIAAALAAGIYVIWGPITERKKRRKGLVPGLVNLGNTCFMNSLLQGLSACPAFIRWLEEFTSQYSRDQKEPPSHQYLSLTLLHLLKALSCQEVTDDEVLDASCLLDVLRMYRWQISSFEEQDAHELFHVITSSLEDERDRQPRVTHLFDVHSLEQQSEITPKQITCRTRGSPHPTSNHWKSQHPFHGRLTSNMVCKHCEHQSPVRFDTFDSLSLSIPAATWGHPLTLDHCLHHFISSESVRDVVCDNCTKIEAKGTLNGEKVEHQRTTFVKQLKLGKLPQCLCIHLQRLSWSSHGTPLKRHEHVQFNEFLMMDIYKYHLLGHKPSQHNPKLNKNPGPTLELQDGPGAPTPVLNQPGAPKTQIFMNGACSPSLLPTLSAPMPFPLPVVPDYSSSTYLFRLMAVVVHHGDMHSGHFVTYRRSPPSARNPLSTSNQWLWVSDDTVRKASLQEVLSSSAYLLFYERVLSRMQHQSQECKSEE
Text: USP7 and USP30 are USP DUBs and belong to the same structural family as USP22, while CYLD belongs to the structurally distinct ubiquitin C-terminal hydrolase (UCH) family of DUBs. […]

USP51/ATXN7L3/ENY2 = biological target: T2, USP51/ATXN7L3/ENY2 (Homo sapiens, UniProt Q70EK9); assay: Inhibition of H2B DUB complexes, Ub-AMC cleavage: USP51 complex; type: biochemical; conditions: 1000 nM complex, 5 μM Ub-AMC
T2 construct: made in house
T2 sequence (Q70EK9 1-711): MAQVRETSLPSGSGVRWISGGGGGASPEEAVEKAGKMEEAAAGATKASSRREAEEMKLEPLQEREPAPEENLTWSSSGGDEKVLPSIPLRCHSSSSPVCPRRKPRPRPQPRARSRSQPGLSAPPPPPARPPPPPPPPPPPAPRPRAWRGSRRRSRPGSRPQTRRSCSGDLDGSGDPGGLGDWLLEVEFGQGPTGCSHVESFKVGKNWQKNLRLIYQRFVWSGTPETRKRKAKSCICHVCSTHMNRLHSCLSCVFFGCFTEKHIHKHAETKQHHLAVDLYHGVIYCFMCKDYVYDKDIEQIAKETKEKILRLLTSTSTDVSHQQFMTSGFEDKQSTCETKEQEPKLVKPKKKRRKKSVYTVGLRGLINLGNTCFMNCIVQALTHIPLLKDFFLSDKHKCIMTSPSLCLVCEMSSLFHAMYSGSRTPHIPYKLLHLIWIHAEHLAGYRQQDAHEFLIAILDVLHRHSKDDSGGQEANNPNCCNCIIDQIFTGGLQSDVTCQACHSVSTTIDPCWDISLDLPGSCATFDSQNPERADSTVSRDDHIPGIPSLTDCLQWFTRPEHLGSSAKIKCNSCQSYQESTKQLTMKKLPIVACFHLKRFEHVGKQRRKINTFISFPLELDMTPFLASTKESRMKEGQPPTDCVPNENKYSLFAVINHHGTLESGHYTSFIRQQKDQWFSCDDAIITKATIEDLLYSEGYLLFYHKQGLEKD
T2 sequence (Q14CW9 1-347 partner): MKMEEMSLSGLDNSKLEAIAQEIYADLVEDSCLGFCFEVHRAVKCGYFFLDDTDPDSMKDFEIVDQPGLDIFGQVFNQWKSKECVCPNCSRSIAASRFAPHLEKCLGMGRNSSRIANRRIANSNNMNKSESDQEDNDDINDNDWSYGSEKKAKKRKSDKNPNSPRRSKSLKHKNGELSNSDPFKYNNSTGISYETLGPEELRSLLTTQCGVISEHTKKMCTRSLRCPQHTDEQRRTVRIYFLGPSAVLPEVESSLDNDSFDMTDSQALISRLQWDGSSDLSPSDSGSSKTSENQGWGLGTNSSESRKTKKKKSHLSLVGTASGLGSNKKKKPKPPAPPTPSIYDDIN
T2 sequence (Q9NPA8 1-101 partner): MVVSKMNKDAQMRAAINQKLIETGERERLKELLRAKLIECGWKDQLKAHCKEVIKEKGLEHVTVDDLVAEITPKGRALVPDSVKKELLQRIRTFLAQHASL
Description: (§1) Cleavage rates of 5 μM Ub-AMC were assayed for 75 nM USP22/ATXN7L3/ENY2/ATXN7 (hDUBm), 100 nM USP27x/ATXN7L3/ENY2, or 1000 nM USP51/ATXN7L3/ENY2. Rates were normalized to the uninhibited reaction in each case to determine the fraction of apparent activity.
(§2) DUB specificity assays Ubiquitin-rhodamine(110)-glycine cleavage rates were measured for all DUBs available in the DUBprofiler™ panel with two independent replicates (44 in total; Ubiquigent). […] USP22 was not included in the panel, and is not represented in FIG. 12A. […] Initial cleavage rates of each complex were measured on a fixed concentration of 5 μM Ub-AMC.
(§3) Heterotrimeric complexes containing USP27x and USP51 were purified, respectively, in complex with ENY2 and ATXN7L3. The activity of these complexes on Ub-AMC was compared to that of the human DUBm, which contains USP22, ENY2, ATXN7L3, and a fourth subunit, ATXN7, that anchors the DUBm to the rest of the SAGA complex.

USP27x = biological target: T3, USP27x (Homo sapiens, UniProt A6NNY8); assay: DUBprofiler panel, USP27x alone; type: biochemical; conditions: 1 μM hD1, USP27x alone without other subunits
T3 construct: purchased Ubiquigent (DUBprofiler panel)
T3 sequence (A6NNY8 1-438): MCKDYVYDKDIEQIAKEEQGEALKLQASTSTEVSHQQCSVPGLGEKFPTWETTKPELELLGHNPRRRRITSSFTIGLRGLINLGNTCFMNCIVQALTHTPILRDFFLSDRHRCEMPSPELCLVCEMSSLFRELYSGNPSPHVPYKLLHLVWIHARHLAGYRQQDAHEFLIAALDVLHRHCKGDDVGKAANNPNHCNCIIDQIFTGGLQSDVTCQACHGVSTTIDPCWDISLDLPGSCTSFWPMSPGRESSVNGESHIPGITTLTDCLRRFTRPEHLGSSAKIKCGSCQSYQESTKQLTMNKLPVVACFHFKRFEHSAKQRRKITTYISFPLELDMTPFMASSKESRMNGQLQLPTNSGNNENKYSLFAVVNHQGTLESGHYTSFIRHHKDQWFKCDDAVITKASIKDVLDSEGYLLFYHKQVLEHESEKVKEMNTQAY
Description: The human genome encodes about 80 active DUBs, 55 of which belong to the same USP structural family as USP22, thus presenting a challenge to the development of specific DUB inhibitors. […] The activity of each DUB was tested in the presence of a single concentration of inhibitor and compared with enzyme activity in the absence of compound. […] In this screen, however, USP27x alone was tested in the absence of other subunits.

[1] = biological target: USP22/ATXN7L3/ENY2/ATXN7 (hDUBm) (Homo sapiens, UniProt Q9UPT9); assay: biochemical
Description: as §1, §2, §3

Sequence of USP22/ATXN7L3/ENY2/ATXN7 (hDUBm) (Q9UPT9 whole entry, one chain of several): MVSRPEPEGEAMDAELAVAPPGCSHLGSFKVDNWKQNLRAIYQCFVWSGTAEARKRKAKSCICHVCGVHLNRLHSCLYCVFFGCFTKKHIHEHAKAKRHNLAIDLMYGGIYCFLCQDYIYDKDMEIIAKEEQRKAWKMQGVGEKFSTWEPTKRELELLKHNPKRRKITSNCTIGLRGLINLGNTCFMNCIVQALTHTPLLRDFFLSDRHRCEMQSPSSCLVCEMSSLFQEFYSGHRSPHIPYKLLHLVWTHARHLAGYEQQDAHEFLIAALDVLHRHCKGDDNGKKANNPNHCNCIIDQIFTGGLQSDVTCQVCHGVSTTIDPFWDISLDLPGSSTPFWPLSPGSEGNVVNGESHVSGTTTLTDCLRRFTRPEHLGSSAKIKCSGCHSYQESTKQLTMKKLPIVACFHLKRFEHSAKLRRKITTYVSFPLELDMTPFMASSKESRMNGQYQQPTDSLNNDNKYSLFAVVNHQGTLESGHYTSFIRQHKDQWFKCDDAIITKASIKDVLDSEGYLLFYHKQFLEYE
Sequence of USP22/ATXN7L3/ENY2/ATXN7 (hDUBm) (O15265 3-151 partner limits assumed, one chain of several): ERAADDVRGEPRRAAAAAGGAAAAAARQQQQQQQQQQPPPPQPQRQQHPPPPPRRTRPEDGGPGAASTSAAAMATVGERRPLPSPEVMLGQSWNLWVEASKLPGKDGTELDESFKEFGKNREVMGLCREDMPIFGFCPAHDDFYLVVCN

CC[C@H](C)[C@@H]1NC(=O)[C@H](C)NC(=O)[C@@H](Cc2ccc(O)cc2)NC(=O)CSC[C@@H](C(N)=O)NC(=O)[C@H](CC(C)C)NC(=O)[C@H](CC(C)C)NC(=O)[C@H]([C@@H](C)O)NC(=O)[C@H]([C@@H](C)O)NC(=O)[C@H](CCCCN)NC(=O)CNC(=O)[C@H](CCCNC(=N)N)NC(=O)[C@H](Cc2ccc(O)cc2)NC(=O)[C@H](CO)NC1=O [hD1] ({CH2CO}-[dY]AISYRGKTTLLC-NH2; thioether N-13)
effect on USP30 activity (USP30): ~15%
IC50 (USP51/ATXN7L3/ENY2): > 250000 nM
reduction of USP27x activity (USP27x): ~50%
IC50 [1]: 100 nM
